Laboratory results as given in patent US9233088B2, “Use of glutamate, glutamate derivatives or metabolites, glutamate analogues or mixtures thereof for the manufacture of a composition for the treatment of osteoporosis” (Protista Biotechnology AB, priority 2001, dated 2016).
Residues, ends and D or L forms follow the SMILES beside them.

Columns and labels:
postmenopausal women = conditions: Gynecol. Endocrinol. 7:201-205 (1993); cited from earlier work
piglets [1] = assay: Three point bending test (Instron 4302) of bones from piglets given AKG or Ala-Gln orally; format: in vivo, pig; conditions: for Bone ultimate strength (Wf) femur: piglets 35 days of postnatal life, 0.4 g/kg b.w. oral once a day
Protocol: (§1) All piglets suckled sow milk before weaning. After weaning at the age of 28 days piglets were fed ad libitum with a standard mixture Premix prestarter (PP) (Food plant-Motycz, Poland) and free access to water was allowed. Piglets were allotted to three experimental trials:
(§2) 2—Second group, receiving 0.4 g/kg/b.w. of L-alanyl-L-glutamine (ala-gln), (2 ml solution/kg b.w.)
(§3) Different parameters are used for defining and measuring the bone quality according to the invention. Used parameters are known to the skilled man in the art and are explained below: • 1) Maximum elastic strength measures the load, in Newtons (N), at […]. • 2) Ultimate strength measures the load, in Newtons (N), at […] of the bone. • 3) Cross-sectional area is the measure of the bone area on the cross section, in mm^2. • 4) Second moment of inertia is the measurement of the efficiency of the cross-sectional geometry to resist bending force, expressed in mm^4. • 5) Mean relative wall thickness is the wall thickness of the bone to its lumen. • 6) Bone mineral density (BMD) expresses the mineral content of the bone expressed in g/cm^2.
(§4) At the age of 35 days, piglets were sacrificed, eviscerated and bones were sampled.
Using Instron 4302 apparatus and applying three point bending test as presented in FIG. 1, the following properties of the bones were determined from curves showing the relation between load and deflection:
1) maximum elastic strength, Wy
4) maximum elastic deflection.

piglets [2] = assay: Architectural and geometric properties of bones from piglets given AKG or Ala-Gln orally; format: in vivo, pig; conditions: piglets 35 days, 0.4 g/kg b.w. oral, mean ± SEM
Protocol: as §1, §2, §3, §4
Architectural and geometric properties of bone were estimated based on measurements of horizontal and vertical cross section as well as interior and exterior diameter of the bone.
Mean relative wall thickness (MRWT) expresses the ratio of wall to lumen measures and serves as an indicator in the process of architectural adaptation of bone to physiological stress during the growth of the body. When the lumen increases with unchanged wall thickness the MRWT decreases but bone resistance to strain increases.

turkeys = assay: Ulna bone mineral density (DEXA) after fracture and neurectomy in the turkey; format: in vivo; conditions: group A, 0.8 g/kg oral
Source text: Turkeys are kept in common cages, 10 turkeys/cage. The turkeys have free access to water and are fed ad libitum.

ovariectomized rats = assay: Femur bone mineral density in intact, shame operated and ovariectomized osteopenic female rats given AKG in drinking water; format: in vivo, Wistar rats; conditions: all three groups (INT, SHO, OVX), 60 days drinking water with AKG, p<0.01 in all groups
Protocol: 60 female Wistar rats at the age of 2 months and with an initial bodyweight of 200 g are used.
The animals are maintained in controlled conditions of 12/12 h dark/light ratio at 22° C.±2 and at 55%±2 humidity with free access to food and water.
The rats are divided into three groups (n=20), where Group 1 is shame operated, Group 2 is ovariectomized and Group 3 is intact, i.e. not operated at all.
On the day of surgery, all rats are anaesthetised with an intramuscular injection of ketamine and xylaline.
20 of the rats are shame-operated (SHO), where the ovaries are exteriorised and replaced intact.
The second group of ovariectomized rats (OVX) are submitted to ovariectomy from a dorsal approach.
Six months after ovariectomy, the animals from group 1 and 2, are divided into two additional sub-groups; one placebo and one experimental group.
After 60 days with placebo and experimental drinking water the rats are anaesthetised in CO2 and femur isolated for further analysis of bone mineral density.

piglets [3] = assay: Growth (bodyweight) and bone mineralisation during postnatal life of the pig; format: in vivo
Protocol: as §1, §2, §4

[4] = ribs 4-9, piglets 35 days, 0.4 g/kg b.w. oral, mean ± SEM

Row | Molecule | Increase in bone mineral density (postmenopausal women) [%] | Yielding stress of the 5th rib (piglets [1]; 5th rib, 35-days-old piglets, versus control) | Bone ultimate strength (Wf) femur (piglets [1]; mean ± SEM) [N] | Cross-sectional area (A) femur (piglets [2]; femur) | Cross-sectional area (A) humerus (piglets [2]) | BMD of the ulna bone, difference compared to the saline treated turkeys (turkeys; left wing control (intact), p<0.01) [%] | BMD of the ulna bone, AKG effect compared to the saline treated turkeys (turkeys; right wing experimental (neurectomized, fracture of the ulnae), p<0.055) | BMD difference between the AKG treated rats and the placebo treated rats (ovariectomized rats) | Bone maximum elastic strength (Wy) (ribs 4-9) (piglets [1]; [4]) [N] | Moment of ultimate strength ribs (4-9) (piglets [1]; [4]) | Ultimate strength (Wf) (ribs 4-9) (piglets [1]; [4]) [N] | Second moment of inertia (Ix) femur (piglets [2]; femur) | Cross sectional area (A) (ribs 4-9) (piglets [2]; ribs 4-9) [mm^2] | Second moment of inertia (ribs 4-9) (piglets [2]; ribs 4-9) [mm^4] | Bodyweight difference, day 14 (piglets [3]; day 14, control group always less than Ala-Gln group) | Bodyweight difference, day 21 (piglets [3]; day 21, control group always less than Ala-Gln group) | Bodyweight difference, day 35 (piglets [3]; day 35, control group always less than Ala-Gln group) | Bodyweight difference, day three (piglets [3]; day three of postnatal life, control group always less than Ala-Gln group)
1 | L-glutamine calcium monofluorophospate | 4.25 |  |  |  |  |  |  |  |  |  |  |  |  |  |  |  |  | 
2 | α-keto-glutaric sodium salt [AKG] |  | significant increase | 1123.0 ± 75.09 | 64.7 ± 3.82 * mm^2 | 52.7 ± 4.1 * mm^2 | 25 | about 11% | about 10% |  |  |  |  |  |  |  |  |  | 
3 | C[C@H](N)C(=O)N[C@@H](CCC(N)=O)C(=O)O [Ala-Gln, L-alanyl-L-glutamine] (H-Ala-Gln-OH) |  |  | 1075.0 ± 28.16 | 60.1 ± 2.59 * mm^2 | 52.2 ± 2.48 * mm^2 |  |  |  | 442.9 ± 15.32 | 625.24 ± 1.5 ∇ N | 450.2 ± 22.1 | 492.8 ± 12.81 ∇ mm^4 | 9.62 ± 0.33 | 10.88 ± 0.55 | about 690 g | about 419 g | about 313 g | about 96 g
